PubChem BioAssay (NCI)
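1) Cells in 96-well plates. 2) Compound, 48 h, 5 concentrations. 3) Linear interpolation between surrounding doses. 4) Unreached endpoint = highest concentration. GI50 is the concentration that inhibits growth by half. The concentration for full growth arrest is given as TGI.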

Experiments:
Assay in all cases: NCI tumour cell line growth inhibition, 48 h
786-0 renal = test system: 786-0 renal
A498 renal = test system: A498 renal
A549 NSCLC = test system: A549 NSCLC
ACHN renal = test system: ACHN renal
BT-549 breast = test system: BT-549 breast
CAKI-1 renal = test system: CAKI-1 renal
CCRF-CEM leukemia = test system: CCRF-CEM leukemia
COLO 205 colon = test system: COLO 205 colon
DU-145 prostate = test system: DU-145 prostate
EKVX NSCLC = test system: EKVX NSCLC
HCT-116 colon = test system: HCT-116 colon
HCT-15 colon = test system: HCT-15 colon
HL-60(TB) leukemia = test system: HL-60(TB) leukemia
HOP-62 NSCLC = test system: HOP-62 NSCLC
HOP-92 NSCLC = test system: HOP-92 NSCLC
HS 578T breast = test system: HS 578T breast
HT29 colon = test system: HT29 colon
IGROV1 ovarian = test system: IGROV1 ovarian
K-562 leukemia = test system: K-562 leukemia
KM12 colon = test system: KM12 colon
LOX IMVI melanoma = test system: LOX IMVI melanoma
M14 melanoma = test system: M14 melanoma
MALME-3M melanoma = test system: MALME-3M melanoma
MCF7 breast = test system: MCF7 breast
MDA-MB-231 breast = test system: MDA-MB-231 breast
MDA-MB-435 = test system: MDA-MB-435
MOLT-4 leukemia = test system: MOLT-4 leukemia
NCI-H226 lung = test system: NCI-H226 lung
NCI-H23 lung = test system: NCI-H23 lung
NCI-H460 lung = test system: NCI-H460 lung
NCI-H522 lung = test system: NCI-H522 lung
NCI/ADR-RES ovarian = test system: NCI/ADR-RES ovarian
OVCAR-3 ovarian = test system: OVCAR-3 ovarian
OVCAR-4 ovarian = test system: OVCAR-4 ovarian
OVCAR-5 ovarian = test system: OVCAR-5 ovarian
OVCAR-8 ovarian = test system: OVCAR-8 ovarian
PC-3 prostate = test system: PC-3 prostate
RPMI-8226 leukemia = test system: RPMI-8226 leukemia
SF-268 CNS = test system: SF-268 CNS
SF-295 CNS = test system: SF-295 CNS
SF-539 CNS = test system: SF-539 CNS
SK-MEL-2 melanoma = test system: SK-MEL-2 melanoma
SK-MEL-28 melanoma = test system: SK-MEL-28 melanoma
SK-MEL-5 melanoma = test system: SK-MEL-5 melanoma
SK-OV-3 ovarian = test system: SK-OV-3 ovarian
SN12C renal = test system: SN12C renal
SNB-19 CNS = test system: SNB-19 CNS
SNB-75 CNS = test system: SNB-75 CNS
SR leukemia = test system: SR leukemia
SW-620 colon = test system: SW-620 colon
T-47D breast = test system: T-47D breast
TK-10 renal = test system: TK-10 renal
U251 CNS = test system: U251 CNS
UACC-257 melanoma = test system: UACC-257 melanoma
UACC-62 melanoma = test system: UACC-62 melanoma
UO-31 renal = test system: UO-31 renal
HCC-2998 colon = test system: HCC-2998 colon
RXF 393 renal = test system: RXF 393 renal

Structure (SMILES): Nc1nc(N)c2ncn(Cc3ccccc3CO)c2n1
- TGI (786-0 renal): > 100 µM
- TGI (A498 renal): > 100 µM
- TGI (A549 NSCLC): > 100 µM
- TGI (ACHN renal): > 100 µM
- TGI (BT-549 breast): > 100 µM
- TGI (CAKI-1 renal): > 100 µM
- TGI (CCRF-CEM leukemia): > 100 µM
- TGI (COLO 205 colon): > 100 µM
- TGI (DU-145 prostate): > 100 µM
- TGI (EKVX NSCLC): > 100 µM
- TGI (HCT-116 colon): > 100 µM
- TGI (HCT-15 colon): > 100 µM
- TGI (HL-60(TB) leukemia): > 100 µM
- TGI (HOP-62 NSCLC): > 100 µM
- TGI (HOP-92 NSCLC): > 100 µM
- TGI (HS 578T breast): > 100 µM
- TGI (HT29 colon): > 100 µM
- TGI (IGROV1 ovarian): > 100 µM
- TGI (K-562 leukemia): > 100 µM
- TGI (KM12 colon): > 100 µM
- TGI (LOX IMVI melanoma): > 100 µM
- TGI (M14 melanoma): > 100 µM
- TGI (MALME-3M melanoma): > 100 µM
- TGI (MCF7 breast): > 100 µM
- TGI (MDA-MB-231 breast): > 100 µM
- TGI (MDA-MB-435): > 100 µM
- TGI (MOLT-4 leukemia): > 100 µM
- TGI (NCI-H226 lung): > 100 µM
- TGI (NCI-H23 lung): > 100 µM
- TGI (NCI-H460 lung): > 100 µM
- TGI (NCI-H522 lung): > 100 µM
- TGI (NCI/ADR-RES ovarian): > 100 µM
- TGI (OVCAR-3 ovarian): > 100 µM
- TGI (OVCAR-4 ovarian): > 100 µM
- TGI (OVCAR-5 ovarian): > 100 µM
- TGI (OVCAR-8 ovarian): > 100 µM
- TGI (PC-3 prostate): > 100 µM
- TGI (RPMI-8226 leukemia): > 100 µM
- TGI (SF-268 CNS): > 100 µM
- TGI (SF-295 CNS): > 100 µM
- TGI (SF-539 CNS): > 100 µM
- TGI (SK-MEL-2 melanoma): > 100 µM
- TGI (SK-MEL-28 melanoma): > 100 µM
- TGI (SK-MEL-5 melanoma): > 100 µM
- TGI (SK-OV-3 ovarian): > 100 µM
- TGI (SN12C renal): > 100 µM
- TGI (SNB-19 CNS): > 100 µM
- TGI (SNB-75 CNS): > 100 µM
- TGI (SR leukemia): > 100 µM
- TGI (SW-620 colon): > 100 µM
- TGI (T-47D breast): > 100 µM
- TGI (TK-10 renal): > 100 µM
- TGI (U251 CNS): > 100 µM
- TGI (UACC-257 melanoma): > 100 µM
- TGI (UACC-62 melanoma): > 100 µM
- TGI (UO-31 renal): > 100 µM

Structure (SMILES): Cc1ccc(-c2csc3ncnc(Nc4cccc(O)c4)c23)cc1
- GI50 (786-0 renal): 19.9 µM
- TGI (786-0 renal): 42.8 µM
- GI50 (A498 renal): 30.8 µM
- TGI (A498 renal): 66.5 µM
- GI50 (A549 NSCLC): 41.8 µM
- TGI (A549 NSCLC): 92.5 µM
- GI50 (BT-549 breast): 37 µM
- TGI (BT-549 breast): 98.2 µM
- GI50 (CCRF-CEM leukemia): 21 µM
- TGI (CCRF-CEM leukemia): 91.1 µM
- GI50 (COLO 205 colon): 36.4 µM
- TGI (COLO 205 colon): > 100 µM
- GI50 (DU-145 prostate): 42.1 µM
- TGI (DU-145 prostate): > 100 µM
- GI50 (EKVX NSCLC): 37.8 µM
- TGI (EKVX NSCLC): 98 µM
- GI50 (HCC-2998 colon): 17.2 µM
- TGI (HCC-2998 colon): 34.1 µM
- GI50 (HCT-116 colon): 20 µM
- TGI (HCT-116 colon): 39.6 µM
- GI50 (HCT-15 colon): 19.8 µM
- TGI (HCT-15 colon): 44.5 µM
- GI50 (HL-60(TB) leukemia): 18.2 µM
- TGI (HL-60(TB) leukemia): 51.5 µM
- GI50 (HOP-62 NSCLC): 21.8 µM
- TGI (HOP-62 NSCLC): 49.6 µM
- GI50 (HOP-92 NSCLC): 14.3 µM
- TGI (HOP-92 NSCLC): 35.9 µM
- GI50 (HS 578T breast): 36.5 µM
- TGI (HS 578T breast): > 100 µM
- GI50 (HT29 colon): 39.7 µM
- TGI (HT29 colon): > 100 µM
- GI50 (IGROV1 ovarian): 17.8 µM
- TGI (IGROV1 ovarian): 57.5 µM
- GI50 (K-562 leukemia): 5.6 µM
- TGI (K-562 leukemia): > 100 µM
- GI50 (KM12 colon): 25.7 µM
- TGI (KM12 colon): 69 µM
- GI50 (LOX IMVI melanoma): 25.9 µM
- TGI (LOX IMVI melanoma): 62 µM
- GI50 (M14 melanoma): 17.9 µM
- TGI (M14 melanoma): 37.3 µM
- GI50 (MCF7 breast): 41.6 µM
- TGI (MCF7 breast): > 100 µM
- GI50 (MDA-MB-231 breast): > 100 µM
- TGI (MDA-MB-231 breast): > 100 µM
- GI50 (MDA-MB-435): 16.7 µM
- TGI (MDA-MB-435): 33.6 µM
- GI50 (MOLT-4 leukemia): 41.6 µM
- TGI (MOLT-4 leukemia): > 100 µM
- GI50 (NCI-H226 lung): 38.1 µM
- TGI (NCI-H226 lung): > 100 µM
- GI50 (NCI-H23 lung): 22.6 µM
- TGI (NCI-H23 lung): 46.5 µM
- GI50 (NCI-H460 lung): 29.2 µM
- TGI (NCI-H460 lung): 76.3 µM
- GI50 (NCI-H522 lung): 18.5 µM
- TGI (NCI-H522 lung): 62.1 µM
- GI50 (NCI/ADR-RES ovarian): 24.7 µM
- TGI (NCI/ADR-RES ovarian): 60.3 µM
- GI50 (OVCAR-3 ovarian): 22.3 µM
- TGI (OVCAR-3 ovarian): 50.4 µM
- GI50 (OVCAR-4 ovarian): 44.6 µM
- TGI (OVCAR-4 ovarian): > 100 µM
- GI50 (OVCAR-5 ovarian): 25.5 µM
- TGI (OVCAR-5 ovarian): 69.6 µM
- GI50 (OVCAR-8 ovarian): 32.3 µM
- TGI (OVCAR-8 ovarian): > 100 µM
- GI50 (PC-3 prostate): 16.3 µM
- TGI (PC-3 prostate): 37.1 µM
- GI50 (RPMI-8226 leukemia): 14.5 µM
- TGI (RPMI-8226 leukemia): 37 µM
- GI50 (RXF 393 renal): 48.2 µM
- TGI (RXF 393 renal): 81.2 µM
- GI50 (SF-268 CNS): > 100 µM
- TGI (SF-268 CNS): > 100 µM
- GI50 (SF-295 CNS): 2.13 µM
- TGI (SF-295 CNS): 24.7 µM
- GI50 (SF-539 CNS): 37.7 µM
- TGI (SF-539 CNS): > 100 µM
- GI50 (SK-MEL-2 melanoma): 22.4 µM
- TGI (SK-MEL-2 melanoma): 62.4 µM
- GI50 (SK-MEL-28 melanoma): 43.1 µM
- TGI (SK-MEL-28 melanoma): > 100 µM
- GI50 (SK-MEL-5 melanoma): 22.8 µM
- TGI (SK-MEL-5 melanoma): 51.2 µM
- GI50 (SK-OV-3 ovarian): 38.6 µM
- TGI (SK-OV-3 ovarian): > 100 µM
- GI50 (SN12C renal): 34.1 µM
- TGI (SN12C renal): > 100 µM
- GI50 (SNB-19 CNS): 50.7 µM
- TGI (SNB-19 CNS): > 100 µM
- GI50 (SNB-75 CNS): 39.6 µM
- TGI (SNB-75 CNS): > 100 µM
- GI50 (SR leukemia): 15.2 µM
- TGI (SR leukemia): 77.5 µM
- GI50 (SW-620 colon): 42.4 µM
- TGI (SW-620 colon): > 100 µM
- GI50 (T-47D breast): 44 µM
- TGI (T-47D breast): > 100 µM
- GI50 (U251 CNS): 22.5 µM
- TGI (U251 CNS): 58.6 µM
- GI50 (UACC-257 melanoma): 17.5 µM
- TGI (UACC-257 melanoma): 38.9 µM
- GI50 (UACC-62 melanoma): 28 µM
- TGI (UACC-62 melanoma): 73 µM
- GI50 (UO-31 renal): 35.5 µM
- TGI (UO-31 renal): > 100 µM
